# Source: publication PMC11874750, “Inhibitory effect of fermented avocado seed extract (Persea americana Mill. cv. Hass) on polyphenol oxidase and its application as anti-browning agent in avocado, apple, and banana pulps” (Heliyon, 2025)
# System: T1, polyphenol oxidase (PPO), crude PPO extract of Hass avocado pulp
# T1 construct: isoenzyme not identified
# Assay: absorbance at […] nm, Lineweaver-Burk
# Format: biochemical, Persea americana
# Settings: phosphate buffer pH 7.0, catechol 2.7-44.5 mM, also printed as 0.1627 g/L, no inhibitor
compound,measurement,value
Oc1ccccc1O [catechol],Km,1.48 mM
